Results published in patent publication US20260015339A1, “CALIX[4]ARENES WITH HIGH ANTICANCER ACTIVITY” (UNIVERSITE GRENOBLE ALPES, priority 2023, published 2026).

Tests used:
[1] = tested on: Hepatocellular carcinoma (HepG2/C3A) cells; test: MTT cytotoxicity assay (DL50); format: cell-based; details: 24 hours of incubation
Description: Cytotoxicity was evaluated using the MTT assay. 1.10^4 cells per well were seeded in a flat-bottom 96-well plate and were incubated for 48 hours at 37° C. with 5% CO2 before addition of the different calix[4]arenes at concentrations up to 200 μM. In all experiments, each condition was performed in triplicate in the plate. Besides, each experiment was done three times independently. After 24 hours of incubation in presence of the compounds, medium was discarded, cells were rinsed with PBS and 100 μL of medium containing 0.5 mg/mL of MTT was added to each well. After 30 minutes of incubation at 37° C., MTT solution was discarded and formazan crystals formed were dissolved in 150 μL of 4 mM HCl, 0.1% NP40 in isopropanol. The absorbance in the wells were read in a microplate reader (Tecan microplate reader-550) at 570 nm.

[2] = Cu^+ binding by 1H NMR titration; details: 1H NMR titration with Cu(MeCN)4BF4, CD3CN/CDCl3 4/1, 298 K
Description: Binding abilities and complexation constants of the examples of calix[4]arenes of the present invention and the comparative examples with Cu^+ were evaluated by ^1H NMR titrations at 298 K using copper(I)tetrakis(acetronitrile)tetrafluoroborate.
For example, for each separate calix[4]arene a stock solution of the tested calix[4]arene was prepared in a CD3CN/CDCl3, 4/1 mixture. Using this stock solution, a Cu(MeCN)4BF4 solution was prepared and added by steps of 0.25 equivalent of copper(I) up until 1 equivalent and then by steps of 0.5 equivalent until a total of at least 2 equivalents. ^1H NMR spectra were recorded at a 400 MHz spectrometer at 298 K for the stock solutions of the calix[4]arenes and after each addition of Cu(MeCN)4BF4.
Calix[4]arenes for which a gradual change of the chemical shifts of the ^1H NMR signals (>0.1 ppm for at least one of the signals) was observed upon addition of up to 4-5 equivalents of Cu(MeCN)4BF4 were considered to show weak binding.

[3] = Cu^+ transport into liposomes with encapsulated BCS; details: POPC/cholesterol 7:3 LUVs, calix[4]arene to lipid 1:1000, 50 μM copper gradient, F/F0 after 600 s
Description: The ability of the examples of calix[4]arenes of the invention and the comparative examples to be delivered into a lipidic bilayer membrane of a liposome from a solution and their capacity to then act as a transporter of Cu^+ was evaluated using bathocuproine disulphonate (hereafter abbreviated “BCS”) encapsulated in large unilamellar vesicles (LUVs, also referred to as liposomes) composed of 1-palmitoyl-2-oleoyl-sn-glycero-3-phosphocholine and cholesterol in a 7:3 ratio.
BCS is a fluorescent water soluble phenantroline derivative that can be used as fluorescent dye for the sensing of Cu^+ through the formation of a non-fluorescent 2:1 complex.
Stock solution of lipids were prepared using deacidified CHCl3 and stored in a freezer. CHCl3 was deacidified by passing through activated basic alumina. The lipids used to prepare the liposomes were 2-oleoyl-1-palmitoyl-sn-glycero-3-phosphocholine (POPC), (purity ≥99%) and cholesterol (purity of 95%). 50 mM sodium phosphate buffer were prepared with Millipore water at pH 7 (±0.1) by mixing the solution of the mono- and the di-protonated phosphate salts. The solution of the dye (BCS) was prepared at 0.5 mM concentration in phosphate buffer.
The lipids solutions were mixed in different ratios in a 5 mL round bottom flask. The POPC/cholesterol molar ratio was 7:3 in all experiments. The total amount of lipids per batch varied depending on the amount of liposomes solution required for the experiment. After mixing the lipid solutions in a round bottom flask, the chloroform was evaporated under a gentle air flow and the resulting lipid film was dried at high vacuum for at least an hour. 500 μL of the BCS solution in phosphate buffer and a magnetic stir bar were added to the flask. The flask was then sonicated for 30 seconds and placed under magnetic agitation for at least an hour. The solution was frozen with liquid nitrogen and heated back to room temperature with warm water ten times to form large unilamellar vesicles (LUVs). The liposome solution was extruded 29 times, using an extrusion kit equipped with a membrane with 200 nm pores. Subsequently, the solution was eluted with the buffer solution used for the experiment through a size exclusion column (Sephadex G-25) to remove the external BCS and then diluted with phosphate buffer to obtain a concentration of 0.4 mM in lipids.
Solutions of the calix[4]arenes were prepared at a concentration of 0.24 mM in DMSO and 5 μL of the solution was added 2 minutes before each transport measurement.
Alternatively, calix[4]arenes were pre-incorporated by combining the calix[4]arene (dissolved in chloroform) with the lipids prior to the evaporation of the chloroform to obtain a lipid film. The concentrations and volumes were chosen to obtain a calix[4]arene to lipid of 1:1000.
Fluorescence measurements were performed with a Horiba FluoroMax 4 spectrometer using a 4-faced quartz cuvette (10 mm×10 mm). For the Cu^+ transport assay, the excitation was set at 278 nm and emission was recorded at 393 nm. These values correspond to the excitation and emission maxima of BCS encapsulated inside LUVs.
The Cu^+ solutions added to the liposomes were obtained by dissolving Cu(MeCN)4BF4 in MeCN at 15.25 mM concentration. The copper solution was then diluted by a factor 5 in a phosphate buffer during the first 30 seconds of the experiment to reach a copper concentration of 3.05 mM. 50 μL of the diluted copper solution was added to 3 mL of liposomes, resulting in a copper gradient of 50 μM. The fluorescence level was monitored for 600 seconds after the addition of the copper solution.
For each run the initial plateau and the initial vertical drop (due to the binding of the exterior dye with Cu^+ and the dilution, 1-4 seconds after the addition) were removed. Then the signal was normalised by dividing the fluorescence values (F) by the value at t=0 second (F0). […]

[4] = tested on: H322 lung carcinoma cells; test: MTS cytotoxicity assay on H322; format: cell-based; details: NCI-H322; H322, 72 hours of treatment
Description: H322 lung carcinoma cells were seeded in 96-well plates together with the calix[4]arene of the formula (2). Cells were grown in RPMI-1640 supplemented with GlutaMAX™ (Gibco™) and fetal calf serum (FCS, 10%) and treated with a broad range of concentrations of the calix[4]arene of the formula (2). After 72 hours of treatment, the cytotoxicity was measured by means of the IC50 value, using the kit “CellTiter 96R AQuous One Solution Cell Proliferation Assay (MTS)” from Promega™. Following 30 minutes of incubation with the MTS reagent, the endpoint measurements were done in triplicate at 485 nm, using a fluorescence plate reader.
H322 lung carcinoma cells were seeded in 96-well plates together with the compound of the 2nd comparative example of the formula (XI). Cells were grown in RPMI-1640 supplemented with GlutaMAX™ (Gibco™) and fetal calf serum (FCS, 10%) and treated with a broad range of concentrations of the 2nd comparative example of the formula (XI). After 72 hours of treatment, the cytotoxicity was measured by means of the IC50 value, using the kit “CellTiter 96R AQuous One Solution Cell Proliferation Assay (MTS)” from Promega™. Following 30 minutes of incubation with the MTS reagent, the endpoint measurements were done in triplicate at 485 nm, using a fluorescence plate reader.
H322 lung carcinoma cells were seeded in 96-well plates together with the 1st comparative example of the formula (X). Cells were grown in RPMI-1640 supplemented with GlutaMAX™ (Gibco™) and fetal calf serum (FCS, 10%) and treated with a broad range of concentrations of the compound of the formula (X). After 72 hours of treatment, the cytotoxicity was measured by means of the IC50 value, using the kit “CellTiter 96R AQuous One Solution Cell Proliferation Assay (MTS)” from Promega™. Following 30 minutes of incubation with the MTS reagent, the endpoint measurements were done in triplicate at 485 nm, using a fluorescence plate reader.
H322 lung carcinoma cells were seeded in 96-well plates together with the tested calix[4]arenes. Cells were grown in RPMI-1640 supplemented with GlutaMAX™ (Gibco™) and fetal calf serum (FCS, 10%) and treated with a broad range of concentrations of the tested calix[4]arenes. After 72 hours of treatment, the cytotoxicity was measured by means of the IC50 value, using the kit “CellTiter 96R AQuous One Solution Cell Proliferation Assay (MTS)” from Promega™. Following 30 minutes of incubation with the MTS reagent, the endpoint measurements were done in triplicate at 485 nm, using a fluorescence plate reader.

[5] = tested on: PC9 human lung cancer cells; test: MTS cytotoxicity assay, combination with CuCl2, PC9; details: 72 hours
Description: PC9 human lung cancer cells were seeded in 96-well plates together with the calix[4]arene of the formula (2) and CuCl2. Cells were grown in RPMI-1640 supplemented with GlutaMAX™ (Gibco™) and fetal calf serum (FCS, 10%) treated with a broad range of concentrations of the calix[4]arene of the formula (2) or/and CuCl2 from Merck. After 72 hours of treatment, the cytotoxicity was measured by means of the IC50 value, using the kit “CellTiter 96R AQuous One Solution Cell Proliferation Assay (MTS)” from Promega™. Following 30 minutes of incubation with the MTS reagent, the endpoint measurements were done in triplicate at 485 nm, using a fluorescence plate reader.

[6] = tested on: A549 human lung cancer cells; test: MTS cytotoxicity assay, combination with CuCl2, A549; details: 72 hours
Description: A549 human lung cancer cells were seeded in 96-well plates together with the calix[4]arene of the formula (2) and CuCl2. Cells were grown in RPMI-1640 supplemented with GlutaMAX™ (Gibco™) and fetal calf serum (FCS, 10%) treated with a broad range of concentrations of the calix[4]arene of the formula (2) or/and CuCl2 from Merck. After 72 hours of treatment, the cytotoxicity was measured by means of the IC50 value, using the kit “CellTiter 96R AQuous One Solution Cell Proliferation Assay (MTS)” from Promega™. Following 30 minutes of incubation with the MTS reagent, the endpoint measurements were done in triplicate at 485 nm, using a fluorescence plate reader.

[7] = tested on: H322 lung carcinoma cells; test: MTS cytotoxicity assay, combination with CuCl2, H322; details: 72 hours
Description: H322 lung carcinoma cells were seeded in 96-well plates together with the calix[4]arene of the formula (2) and CuCl2. Cells were grown in RPMI-1640 supplemented with GlutaMAX™ (Gibco™) and fetal calf serum (FCS, 10%) treated with a broad range of concentrations of the calix[4]arene of the formula (2) or/and CuCl2 from Merck. After 72 hours of treatment, the cytotoxicity was measured by means of the IC50 value, using the kit “CellTiter 96R AQuous One Solution Cell Proliferation Assay (MTS)” from Promega™ Following 30 minutes of incubation with the MTS reagent, the endpoint measurements were done in triplicate at 485 nm, using a fluorescence plate reader.

| SMILES | IC50 [1] | Cu^+ binding [2] | Cu^+ transport [3] | IC50 [4] | also measured |
| --- | --- | --- | --- | --- | --- |
| C=CCOc1c2cccc1Cc1cccc(c1OCc1nccn1C)Cc1cccc(c1OCC=C)Cc1cccc(c1OCc1nccn1C)C2 [(3)] | 4.5 µM | Strong binding (means an affinity constant (Ka) equal or greater than 10^5 M^−1) | Yes (means that a significant decrease of the fluorescence of encapsulated BCS was observed upon addition of Cu^+ to the liposomes (F/F0<0.65 after 600 s)) | 5 µM |  |
| CCOC(=O)COc1c2cccc1Cc1cccc(c1OCc1nccn1C)Cc1cccc(c1OCC(=O)OCC)Cc1cccc(c1OCc1nccn1C)C2 [(4)] | 3.1 µM | Strong binding (means an affinity constant (Ka) equal or greater than 10^5 M^−1) | Yes (means that a significant decrease of the fluorescence of encapsulated BCS was observed upon addition of Cu^+ to the liposomes (F/F0<0.65 after 600 s)) | 6 µM |  |
| COc1c2cccc1Cc1cccc(c1OCc1nccn1C)Cc1cccc(c1OC)Cc1cccc(c1OCc1nccn1C)C2 [(5)] | 23 µM | Strong binding (means an affinity constant (Ka) equal or greater than 10^5 M^−1) | Yes (means that a significant decrease of the fluorescence of encapsulated BCS was observed upon addition of Cu^+ to the liposomes (F/F0<0.65 after 600 s)) | > 10 µM |  |
| Cn1ccnc1COc1c2cccc1Cc1cccc(c1O)Cc1cccc(c1OCc1nccn1C)Cc1cccc(c1O)C2 [(6)] | 20.7 µM | Strong binding (means an affinity constant (Ka) equal or greater than 10^5 M^−1) | Yes (means that a significant decrease of the fluorescence of encapsulated BCS was observed upon addition of Cu^+ to the liposomes (F/F0<0.65 after 600 s)) | > 10 µM |  |
| CCCOc1c2cccc1Cc1cccc(c1OCc1nc3ccccc3n1C)Cc1cccc(c1OCCC)Cc1cccc(c1OCc1nc3ccccc3n1C)C2 [(8)] | 128 µM | Strong binding (means an affinity constant (Ka) equal or greater than 10^5 M^−1) | Yes (means that a significant decrease of the fluorescence of encapsulated BCS was observed upon addition of Cu^+ to the liposomes (F/F0<0.65 after 600 s)) |  |  |
| CCCOc1c2cccc1Cc1cccc(c1OCc1ncco1)Cc1cccc(c1OCCC)Cc1cccc(c1OCc1ncco1)C2 [(9)] | 70 µM | Weak binding (means a change of the chemical shifts of the ^1H NMR signals (>0.1 ppm for at least one of the signals) is observed upon addition of up to 4-5 equivalents of Cu(MeCN)4BF4) | Yes (means that a significant decrease of the fluorescence of encapsulated BCS was observed upon addition of Cu^+ to the liposomes (F/F0<0.65 after 600 s)) |  |  |
| CCCOc1c2cccc1Cc1cccc(c1OCc1nccs1)Cc1cccc(c1OCCC)Cc1cccc(c1OCc1nccs1)C2 [(10)] |  | Weak binding (means a change of the chemical shifts of the ^1H NMR signals (>0.1 ppm for at least one of the signals) is observed upon addition of up to 4-5 equivalents of Cu(MeCN)4BF4) | Yes (means that a significant decrease of the fluorescence of encapsulated BCS was observed upon addition of Cu^+ to the liposomes (F/F0<0.65 after 600 s)) |  |  |
| CCCOc1c2cccc1Cc1cccc(c1OCc1ccccn1)Cc1cccc(c1OCCC)Cc1cccc(c1OCc1ccccn1)C2 [(38)] |  | Strong binding (means an affinity constant (Ka) equal or greater than 10^5 M^−1) | Yes (means that a significant decrease of the fluorescence of encapsulated BCS was observed upon addition of Cu^+ to the liposomes (F/F0<0.65 after 600 s)) |  |  |
| Oc1c(I)cc(Cl)c2cccnc12 [Clioquinol, clioquinol, reference compound] | 67 µM |  |  |  |  |
| [Cl][Cu][Cl] [Cu^2+, CuCl2] |  |  |  |  | percentage of cell viability ([5]; PC9, Cu^2+ 1 μM alone ((2) 0 μM)): 90.9%; percentage of cell viability ([5]; PC9, Cu^2+ 5 μM alone ((2) 0 μM)): 87.1%; percentage of cell viability ([5]; PC9, Cu^2+ 10 μM alone ((2) 0 μM)): 81.0%; percentage of cell viability ([5]; PC9, Cu^2+ 25 μM alone ((2) 0 μM)): 77.1%; percentage of cell viability ([5]; PC9, Cu^2+ 50 μM alone ((2) 0 μM)): 68.8%; percentage of cell viability ([6]; A549, Cu^2+ 1 μM alone ((2) 0 μM)): 89.4%; percentage of cell viability ([6]; A549, Cu^2+ 5 μM alone ((2) 0 μM)): 88.1%; percentage of cell viability ([6]; A549, Cu^2+ 10 μM alone ((2) 0 μM)): 84.6%; percentage of cell viability ([6]; A549, Cu^2+ 25 μM alone ((2) 0 μM)): 85.6%; percentage of cell viability ([6]; A549, Cu^2+ 50 μM alone ((2) 0 μM)): 79.4%; percentage of cell viability ([7]; H322, Cu^2+ 1 μM alone ((2) 0 μM)): 87.2%; percentage of cell viability ([7]; H322, Cu^2+ 5 μM alone ((2) 0 μM)): 83.3%; percentage of cell viability ([7]; H322, Cu^2+ 10 μM alone ((2) 0 μM)): 79.5%; percentage of cell viability ([7]; H322, Cu^2+ 25 μM alone ((2) 0 μM)): 72.9%; percentage of cell viability ([7]; H322, Cu^2+ 50 μM alone ((2) 0 μM)): 60.6% |
| CCCOc1c2cccc1Cc1cccc(c1OCc1nccn1C)Cc1cccc(c1OCCC)Cc1cccc(c1OCc1nccn1C)C2 [formula (2)] | 3.1 µM |  |  |  |  |
